# Test results from patent publication US20230312578A1, “6H-INDOLO[2,3-B]QUINOXALINE DERIVATIVES USEFUL IN THERAPY” (Vironova Medical AB, priority 2020, published 2023).
# Where two headings read alike, the source gives them in different places.
# Legend:
# Type in all cases: cell-based
# HOP-92 = experiment: Human tumor cell line growth assay (SRB); settings: Homo sapiens; NSCLC, HOP-92, 48 h
# [1] = Human tumor cell line growth assay (SRB); settings: human, MDA-MB-435 cells (melanoma), MDA-MB-435, 48 h, read-out: LC50
# MDA-MB-435 = experiment: Human tumor cell line growth assay (SRB); settings: Homo sapiens; Melanoma, MDA-MB-435, 48 h
# EKVX = experiment: Human tumor cell line growth assay (SRB); settings: Homo sapiens, NSCLC, 48 h
# [2] = Human tumor cell line growth assay (SRB); settings: human, EKVX cells (NSCLC), read-out: LC50
# NCI-H23 = experiment: Human tumor cell line growth assay (SRB); settings: Homo sapiens; NSCLC, NCI-H23, 48 h
# [3] = Human tumor cell line growth assay (SRB); settings: human, NCI-H23 cells (NSCLC), NCI-H23, 48 h, read-out: LC50
# HL-60(TB) = experiment: Human tumor cell line growth assay (SRB); settings: Leukemia, 48 h; for CC50: read-out: LC50 (the source's name)
# TK-10 = experiment: Human tumor cell line growth assay (SRB); settings: Renal, TK-10, 48 h; for CC50: read-out: LC50 (the source's name)
# MALME-3M = experiment: Human tumor cell line growth assay (SRB); settings: Homo sapiens, Melanoma, 48 h
# [4] = Human tumor cell line growth assay (SRB); settings: human, MALME-3M cells (melanoma), read-out: LC50
# HCT-116 = experiment: Human tumor cell line growth assay (SRB); settings: Homo sapiens; Colon, HCT-116, 48 h
# [5] = Human tumor cell line growth assay (SRB); settings: human, HCT-116 cells (colon), HCT-116, 48 h, read-out: LC50
# NCI/ADR-RES = experiment: Human tumor cell line growth assay (SRB); settings: Ovarian, 48 h; for CC50: read-out: LC50 (the source's name)
# UACC-62 = experiment: Human tumor cell line growth assay (SRB); settings: Homo sapiens; Melanoma, UACC-62, 48 h
# [6] = Human tumor cell line growth assay (SRB); settings: human, UACC-62 cells (melanoma), UACC-62, 48 h, read-out: LC50
# HT29 = experiment: Human tumor cell line growth assay (SRB); settings: Homo sapiens, HT-29; Colon, HT29, 48 h
# [7] = Human tumor cell line growth assay (SRB); settings: human, HT29 cells (colon), HT29, 48 h, read-out: LC50
# UO-31 = experiment: Human tumor cell line growth assay (SRB); settings: Renal, UO-31, 48 h; for CC50: read-out: LC50 (the source's name)
# OVCAR-8 = experiment: Human tumor cell line growth assay (SRB); settings: Ovarian, OVCAR-8, 48 h; for CC50: read-out: LC50 (the source's name)
# NCI-H460 = experiment: Human tumor cell line growth assay (SRB); settings: Homo sapiens; NSCLC, NCI-H460, 48 h
# [8] = Human tumor cell line growth assay (SRB); settings: human, NCI-H460 cells (NSCLC), NCI-H460, 48 h, read-out: LC50
# SW-620 = experiment: Human tumor cell line growth assay (SRB); settings: Homo sapiens; Colon, SW-620, 48 h
# [9] = Human tumor cell line growth assay (SRB); settings: human, SW-620 cells (colon), SW-620, 48 h
# SK-MEL-2 = experiment: Human tumor cell line growth assay (SRB); settings: Homo sapiens; Melanoma, SK-MEL-2, 48 h
# [10] = Human tumor cell line growth assay (SRB); settings: human, SK-MEL-2 cells (melanoma), SK-MEL-2, 48 h, read-out: LC50
# HS 578T = experiment: Human tumor cell line growth assay (SRB); settings: Breast, 48 h; for CC50: read-out: LC50 (the source's name)
# SK-OV-3 = experiment: Human tumor cell line growth assay (SRB); settings: Ovarian, SK-OV-3, 48 h; for CC50: read-out: LC50 (the source's name)
# A549/ATCC = experiment: Human tumor cell line growth assay (SRB); settings: Homo sapiens, NSCLC, 48 h
# [11] = Human tumor cell line growth assay (SRB); settings: human, A549/ATCC cells (NSCLC), read-out: LC50
# LOX IMVI = experiment: Human tumor cell line growth assay (SRB); settings: Homo sapiens, Melanoma, 48 h
# [12] = Human tumor cell line growth assay (SRB); settings: human, LOX IMVI cells (melanoma), read-out: LC50
# SK-MEL-28 = experiment: Human tumor cell line growth assay (SRB); settings: Homo sapiens; Melanoma, SK-MEL-28, 48 h
# [13] = Human tumor cell line growth assay (SRB); settings: human, SK-MEL-28 cells (melanoma), SK-MEL-28, 48 h, read-out: LC50
# HCC-2998 = experiment: Human tumor cell line growth assay (SRB); settings: Homo sapiens; Colon, HCC-2998, 48 h
# [14] = Human tumor cell line growth assay (SRB); settings: human, HCC-2998 cells (colon), HCC-2998, 48 h, read-out: LC50
# Human tumor cell lines = experiment: Human tumor cell line growth assay (SRB), summary over the panel; settings: overall over the panel
compound,measurement,setting,value
"Cc1cc2nc3c4ccccc4n(CCN(C)C)c3nc2cc1C [B220, 2-(2,3-dimethyl-6H-indolo [2,3-b]quinoxalin-6-yl)-N,N-dimethylethanamine, reference compound]",GI50,HOP-92,1.36 µM
same,CC50 at 48 h,[1],7.49 µM
same,GI50,MDA-MB-435,1.61 µM
same,GI50,EKVX,2.23 µM
same,CC50 at 48 h,[2],83.9 µM
same,GI50,NCI-H23,1.87 µM
same,CC50 at 48 h,[3],45.6 µM
same,GI50,HL-60(TB),1.99 µM
same,CC50,HL-60(TB),> 100 µM
same,GI50,TK-10,2.97 µM
same,CC50,TK-10,71.4 µM
same,GI50,MALME-3M,1.41 µM
same,CC50 at 48 h,[4],53.3 µM
same,GI50,HCT-116,0.488 µM
same,CC50 at 48 h,[5],44.5 µM
same,GI50,NCI/ADR-RES,1.39 µM
same,CC50,NCI/ADR-RES,90.2 µM
same,GI50,UACC-62,1.43 µM
same,CC50 at 48 h,[6],5.58 µM
same,GI50,HT29,0.76 µM
same,CC50 at 48 h,[7],45.3 µM
same,GI50,UO-31,0.726 µM
same,CC50,UO-31,91.3 µM
same,GI50,OVCAR-8,1.16 µM
same,CC50,OVCAR-8,87.2 µM
same,GI50,NCI-H460,0.709 µM
same,CC50 at 48 h,[8],37.3 µM
same,GI50,SW-620,0.54 µM
same,LC50 (50% lethal concentration) at 48 h,[9],35 µM
same,GI50,SK-MEL-2,1.9 µM
same,CC50 at 48 h,[10],7.49 µM
same,GI50,HS 578T,1.57 µM
same,CC50,HS 578T,67.4 µM
same,GI50,SK-OV-3,3.1 µM
same,CC50,SK-OV-3,> 100 µM
same,GI50,A549/ATCC,1.28 µM
same,CC50 at 48 h,[11],> 100 µM
same,GI50,LOX IMVI,0.748 µM
same,CC50 at 48 h,[12],18.9 µM
same,GI50,SK-MEL-28,2.09 µM
same,CC50 at 48 h,[13],9.45 µM
same,GI50,HCC-2998,1.47 µM
same,CC50 at 48 h,[14],15.7 µM
"COc1ccc2c(c1)c1nc3cc(C)c(C)cc3nc1n2CCN(C)C [JBA-094, 2-(9-methoxy-2,3-dimethyl-6H-indolo[2,3-b]quinoxalin-6-yl)-N,N-dimethylethanamine]",GI50,HOP-92,0.238 µM
same,CC50 at 48 h,[1],6.03 µM
same,GI50,MDA-MB-435,1.11 µM
same,GI50,EKVX,1.28 µM
same,CC50 at 48 h,[2],6.8 µM
same,GI50,NCI-H23,0.973 µM
same,CC50 at 48 h,[3],8.2 µM
same,GI50,HL-60(TB),1.18 µM
same,CC50,HL-60(TB),> 100 µM
same,GI50,TK-10,1.96 µM
same,CC50,TK-10,6.92 µM
same,GI50,MALME-3M,1.11 µM
same,CC50 at 48 h,[4],5.77 µM
same,GI50,HCT-116,0.312 µM
same,CC50 at 48 h,[5],6.59 µM
same,GI50,NCI/ADR-RES,0.588 µM
same,GI50,UACC-62,0.898 µM
same,CC50 at 48 h,[6],6.7 µM
same,GI50,HT29,0.369 µM
same,CC50 at 48 h,[7],5.72 µM
same,GI50,UO-31,0.273 µM
same,CC50,UO-31,4.93 µM
same,GI50,OVCAR-8,0.531 µM
same,GI50,NCI-H460,0.388 µM
same,CC50 at 48 h,[8],4.98 µM
same,GI50,SW-620,0.454 µM
same,LC50 (50% lethal concentration) at 48 h,[9],5.53 µM
same,GI50,SK-MEL-2,1.71 µM
same,CC50 at 48 h,[10],7.87 µM
same,GI50,HS 578T,1.93 µM
same,CC50,HS 578T,78.7 µM
same,GI50,SK-OV-3,1.5 µM
same,CC50,SK-OV-3,7.17 µM
same,GI50,A549/ATCC,0.482 µM
same,CC50 at 48 h,[11],7.97 µM
same,GI50,LOX IMVI,0.336 µM
same,CC50 at 48 h,[12],6.07 µM
same,GI50,SK-MEL-28,1.79 µM
same,CC50 at 48 h,[13],6.76 µM
same,GI50,HCC-2998,1.08 µM
same,CC50 at 48 h,[14],6.32 µM
"Cc1cc2nc3c4cc([N+](=O)[O-])ccc4n(CCN(C)C)c3nc2cc1C [JBA-185, 2-(2,3-dimethyl-9-nitro-6H-indolo[2,3-b]quinoxalin-6-yl)-N,N-dimethylethanamine]",GI50,HOP-92,0.642 µM
same,CC50 at 48 h,[1],4.5 µM
same,GI50,MDA-MB-435,0.541 µM
same,GI50,EKVX,0.477 µM
same,CC50 at 48 h,[2],> 100 µM
same,GI50,NCI-H23,0.492 µM
same,CC50 at 48 h,[3],22.6 µM
same,GI50,HL-60(TB),0.914 µM
same,CC50,HL-60(TB),> 100 µM
same,GI50,TK-10,0.371 µM
same,CC50,TK-10,> 100 µM
same,GI50,MALME-3M,0.542 µM
same,CC50 at 48 h,[4],5.1 µM
same,GI50,HCT-116,0.355 µM
same,CC50 at 48 h,[5],94.2 µM
same,GI50,NCI/ADR-RES,0.415 µM
same,CC50,NCI/ADR-RES,> 100 µM
same,GI50,UACC-62,0.514 µM
same,CC50 at 48 h,[6],5.78 µM
same,GI50,HT29,0.375 µM
same,CC50 at 48 h,[7],> 100 µM
same,GI50,UO-31,0.187 µM
same,CC50,UO-31,21.2 µM
same,GI50,OVCAR-8,0.55 µM
same,CC50,OVCAR-8,> 100 µM
same,GI50,NCI-H460,0.35 µM
same,CC50 at 48 h,[8],26.7 µM
same,GI50,SW-620,0.302 µM
same,LC50 (50% lethal concentration) at 48 h,[9],> 100 µM
same,GI50,SK-MEL-2,1.04 µM
same,CC50 at 48 h,[10],9.02 µM
same,"cytotoxicity, comparison in words",Human tumor cell lines,less cytotoxic than B220
same,"growth inhibition (GI50), comparison in words",Human tumor cell lines,lower GI50 compared to B220
same,GI50,HS 578T,1.57 µM
same,CC50,HS 578T,> 100 µM
same,GI50,SK-OV-3,0.704 µM
same,CC50,SK-OV-3,> 100 µM
same,GI50,A549/ATCC,0.387 µM
same,CC50 at 48 h,[11],94.4 µM
same,GI50,SK-MEL-28,0.807 µM
same,CC50 at 48 h,[13],5.65 µM
same,GI50,HCC-2998,0.756 µM
same,CC50 at 48 h,[14],6.53 µM
"Cc1cc2nc3c4cc(O)ccc4n(CCN(C)C)c3nc2cc1C [JBD-139, 6-(2-(dimethylamino)ethyl)-2,3-dimethyl-6H-indolo [2,3-b]quinoxalin-9-ol]",GI50,HOP-92,0.246 µM
same,GI50,MDA-MB-435,0.529 µM
same,GI50,EKVX,1.1 µM
same,GI50,NCI-H23,0.506 µM
same,GI50,HL-60(TB),0.356 µM
same,GI50,TK-10,1.74 µM
same,CC50,TK-10,> 100 µM
same,GI50,MALME-3M,0.623 µM
same,GI50,HCT-116,0.326 µM
same,GI50,NCI/ADR-RES,0.436 µM
same,CC50,NCI/ADR-RES,> 100 µM
same,GI50,UACC-62,0.479 µM
same,CC50 at 48 h,[6],6.37 µM
same,GI50,HT29,0.379 µM
same,CC50 at 48 h,[7],> 100 µM
same,GI50,UO-31,1.39 µM
same,CC50,UO-31,4.18 µM
same,GI50,OVCAR-8,0.412 µM
same,CC50,OVCAR-8,> 100 µM
same,GI50,NCI-H460,0.348 µM
same,GI50,SW-620,0.32 µM
same,GI50,SK-MEL-2,1.1 µM
same,"cytotoxicity, comparison in words",Human tumor cell lines,cytotoxicity that is higher
same,GI50,HS 578T,1.4 µM
same,CC50,HS 578T,> 100 µM
same,GI50,SK-OV-3,1.16 µM
same,CC50,SK-OV-3,> 100 µM
same,GI50,A549/ATCC,0.358 µM
same,GI50,LOX IMVI,0.338 µM
same,GI50,SK-MEL-28,1.5 µM
same,GI50,HCC-2998,0.75 µM
